Literature values as cited in patent US20130309199A1, “Novel Treatment of Multiple Sclerosis (MS)” (priority 2010, published 2013).

Assays:
[1] = test system: detrusor instability; details: cited from earlier work
[2] = test system: active multiple sclerosis lesions; details: gadolinium-enhanced MR images; cited from earlier work

Row | Structure (SMILES) | side effects occurred ([1]; compared with five on placebo, P less than 0.025) [patients] | tolerability ([1]; in vivo) | frequency ([1]; vs placebo, P less than 0.001) | detrusor-pressure rise during bladder filling ([1]; vs placebo, P less than 0.01) | urge incontinence ([1]; vs placebo, P less than 0.025) | urgency ([1]; vs placebo, P less than 0.025) | suppression of active multiple sclerosis lesions [2]
1 | CC(C(=O)O)c1ccc(-c2ccccc2)c(F)c1 (racemic) [Flurbiprofen] | 13 | well tolerated by most patients | significantly reduced | significantly reduced | significantly reduced | significantly reduced | 
2 | CC(C)Cc1ccc(C(C)C(=O)O)cc1 (stereo not shown) [Ibuprofen] |  |  |  |  |  |  | does not suppress
